Test results from patent US20220160680A1, “MICROORGANISM MIXTURES, MOLECULES DERIVED THEREFROM, AND METHODS OF USE THEREOF” (B. G. Negev Technologies and Applications Ltd., at …, priority 2018, published 2022).

Columns and labels:
[1] = tested on: V. cholerae VC1 WT; assay: RT-qPCR of QS genes; format: cell-based, Vibrio cholerae; conditions: 100 μM
Method: RNA was extracted from wild-type strain VC1 cultured in LB lennox medium supplemented with or without 100 μM Tryptophol acetate or Tyrosol acetate grown to an A600 of approximately 1.0OD using the RNA Protect Bacteria reagent and the RNeasy® Mini Kit (Qiagen, Valencia, Calif.) as per the manufacturer's instructions, including the on-column DNase I digestion described by the manufacturer. Purified RNA was quantified using a Banalyzer (Eppendorf, Hamburg, Germany). cDNA was synthesized from 1 μg of RNA using PrimeScript™ RT reagent kit (Takara, Ohtsu, Japan). The reaction was incubated at 37° C. for 30 min, and 2 μl of cDNA was subjected to RT-PCR analysis on an AB Step One Plus PCR system (Applied Biosystems, Carlsbad, Calif.), using qPCRBIO SyGreen Blue mix Hi-ROX (PCR Biosystems, London, UK). RT-PCR was performed in a 96-well plate (Bio-Rad) in triplicate in a 20 μl volume. The mdh gene was used as an endogenous loading control for the reactions. The amount of transcript was analyzed with StepOnePlus Software V2.3 (Applied Biosystems Carlsbad, Calif.). Mdh forward primer 5′-[…]-3′ (SEQ ID NO: 1); Mdh reverse primer 5′-[…]-3′ (SEQ ID NO: 2); vpsT forward primer 5′-[…]-3′ (SEQ ID NO: 3); vpsT reverse primer 5′-[…]-3′ (SEQ ID NO: 4); ctxA forward primer 5′-[…]-3′ (SEQ ID NO: 5); ctxA reverse primer 5′-[…]-3′ (SEQ ID NO: 6); aphA forward primer 5′-[…]-3′ (SEQ ID NO: 7); aphA reverse primer 5′-[…]-3′ (SEQ ID NO: 8). For Transcriptome libraries construction, we used the purified RNA as described in section Quantitative Real-time PCR (RT-PCR) Analysis. The ribosomal RNA was depleted using MICROBExpress kit (Invitrogen by Thermo Fisher Scientific, Lithuania). The libraries preparation was performed using SMARTer Standard RNA-Seq kit (Takara Bio, USA) according to manufacture instruction. High Throughput Sequencing Analysis was done by Illumina HiSeq 2500, SR 50 bp and barcode Raw data quality values phred+33. the amount and percentage of reads that passed the sequencer's automated quality filter, control mapping value, error rate, and per-base quality scores indicate that the sequencing was of high quality. Only a small percentage of reads were discarded due to trimming and the peak of the length distribution is at the original length of 51. The Software and applications that were used for comparison analyses are Library quality control: FASTQC version 0.11.5; Trim_galore (uses cutadapt version 1.10); Mapping: Tophat2 version 2.1.0 (uses Bowtie2 version 2.2.6); Gene counting: HTseq-count version 0.6.1. For normalization and differential expression analysis, DESeq2 R package version 1.18.1 Input files. The reference genome used in the analysis was of Vibrio cholerae O1 biovar El Tor str. N16961, from the following link: ftp://ftp.ncbi.nlm.nih.gov/genomes/all/GCF/000/006/745/GCF_000006745.1_ASM674v1. Counting was performed using an annotation file downloaded at the following link: ftp://ftp.ncbi.nlm.nih.gov/genomes/all/GCF/000/006/745/GCF_000006745.1_ASM674v1/G CF_000006745.1_ASM674v1_genomic.gtf.gz. All these files can be found in our FTP server, see section 4-Analysis result files.

[2] = tested on: P. aeruginosa (PA01), Salmonella and Staphylococcus aureus strains; assay: Bacterial cell growth/viability (BacLight Dead/Live); format: cell-based
Method: For static biofilm assay, overnight cultures of P. aeruginosa (PA01), Salmonella and Staphylococcus aureus strains were diluted 1:10 in fresh LB medium containing a final concentration of synthesized molecule (203) of 20 or 50 μM, or DMSO (up to 1%) as control. Biofilms were grown under non-shaking conditions at 37° C. in 96-well plate (Thermo Scientific, Rochester, N.Y., USA). […] The stained cells were washed twice with PBS. Biofilm images were taken by CLSM (Plan-Apochromat 20×/0.8 M27, Zeiss LSM880, Germany).
P. aeruginosa PA01, Salmonella and Staphylococcus aureus strains were incubated for 24 hr at 37° C. The bacterial suspension was diluted 1:10 with fresh LB and incubated for 3 h with the kefir biomass crude extract molecules or with DMSO as a control (refreshment sample). In all cultures, DMSO concentration was up to 1% (v/v). 200 μl of the broth medium mix with yogurt extract or with DMSO as control were placed in each well of a 96-well plate (Thermo Scientific, Rochester, N.Y., USA). 2 μl refreshment samples were added to each suitable well. The plate incubated for 24 hr at 37° C. After the incubation the samples washed three times with PBS. For visualizing of viable cells, the bacteria were stained green and dead cells stained red using the BacLight® Dead/Live Kit (Invitrogen, Eugene, Oreg., USA). The stained cells were washed twice with PBS. […]

[3] = tested on: Pseudomonas aeruginosa RhlA; assay: Quorum sensing bioluminescence reporter assay; format: cell-based; conditions: C4 AI, high volume
Method: (§1) FIGS. 8A-8E are vertical bar graphs showing bioluminescence screening of quorum sensing (QS) inhibition or activation in the presence of synthetic Tryptophol acetate. The assay was performed using mutant bacteria lacking genes encoding autoinducers. Bacteria were also cloned with a bioluminescence reporter plasmid. N-acyl Homoserine Lactone (AHL) was used for activation (agonist) or inhibition (antagonist) of the following bacteria: Agrobacterium tumefaciens, which responds to the C8 autoinducer (AI), Vibrio cholerae responds to the CAI1 autoinducer, Pseudomonas aeruginosa RhlA responds to the C4 AI and Pseudomonas aeruginosa LasR responds to the C12 AI.
(§2) Bioluminescence assay was performed with mutant bacteria lacking the nucleotide sequences encoding the relevant autoinducers (AI). Additionally, the bacteria were cloned with bioluminescence reporter plasmids in order to measure their luminescence intensity when quorum sensing gene expression occurs. Ninety-six (96) well microtiter plate assays were used to assess AI activation (agonist) or inhibition (antagonist) of the following bacteria: Agrobacterium tumefaciens, which responds to the C8 autoinducer, and both Vibrio cholerae and Vibrio harveyi, which respond to the (S)-4,5-dihydroxy-2,3-pentanedione (DPD) autoinducer to communicate.

[4] = tested on: Pseudomonas aeruginosa LasR; assay: Quorum sensing bioluminescence reporter assay; format: cell-based; conditions: C12 AI
Method: as §1, §2

[5] = target: T1, amyloid beta (αβ1-42) (Homo sapiens, UniProt P05067); assay: Transmission electron microscopy of fibrillation; format: biochemical; conditions: 24 hr, 37° C.
T1 construct: samples containing 30 μM amyloid beta [4(1-42)] in the absence or presence of tryptophol acetate
T1 sequence (P05067 672-713 limits assumed): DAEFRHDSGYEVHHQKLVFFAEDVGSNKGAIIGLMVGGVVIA
Method: TEM grids were prepared after 24 hr incubation at 37° C. of samples containing 30 μM 4(1-42) in the absence or presence of tryptophol acetate in different concentrations.

Row | SMILES | QS-related genes' expression [1] | aphA expression ([1]; high cell density) | ctxA expression ([1]; high cell density) | hapA expression ([1]; high cell density) | hapR expression ([1]; high cell density) | vpsT expression ([1]; high cell density) | Bacterial cell growth / viability [2] | Effect on QS in P. aeruginosa (RhlA) [3] | Effect on QS in P. aeruginosa (LasR) [4] | Fibrillation formation (TEM) [5]
1 | CC(=O)OCCc1ccc(O)cc1 [Tyrosol acetate] | affect QS-related genes' expression |  |  |  |  |  |  |  |  | 
2 | CC(=O)OCCc1c[nH]c2ccccc12 [Tryptophol acetate] |  | upregulation | significantly repressed | lower expression | significant downregulation | remarkable upregulation | did not impact cell growth | low inhibition effect | low inhibition effect | significantly inhibited
